Assay [1] has as its system soluble oligomeric A-beta (human beta-amyloid 1-42). Format: binding. The conditions noted are these: for binding to soluble oligomeric A-beta: A-beta species on Sprague-Dawley naive rat brain section (hippocampus), fluorescence imaging, FIG. 2-3.
Method: (§1) In one embodiment, sections of Sprauge-Dawley naïve rat brain (Taconic) 10 microns in thickness were fixed with 10% formalin in phosphate buffered saline (PBS).
Soluble A-beta oligomer formation. 1 mg of human beta-amyloid 1-42 (H-5642, Bachem) and 500 uL of 1,1,1,3,3,3 hexafluoro-2-propanol (HFIP) (Aldrich) were chilled in separate bottles on ice for 30 minutes. Cold beta-amyloid 1-42 was solubilized with cold HFIP. The mixture was incubated for 1 hr at room temperature until it turned clear. The resulting solution was then dried to a film under vacuum. The film was dissolved again in cold HFIP and incubated another 1 hr at room temperature. The resulting solution was separated into aliquots in several microcentrifuge tubes. HFIP was removed under vacuum, and the films were stored at −20° C. until use. To prepare soluble oligomer, the film was dissolved in appropriate amount of dry DMSO (Sigma), and Ham's F12 media (Biosource) or PBS (Sigma, D8537) was added and incubated at 4° C. for 24 hours (final concentration of 200 uM or 0.9 mg/mL beta-amyloid in 2% DMSO).
(§2) The slides were washed with PBS three times then incubated with blocking buffer consisting of 10% normal goat serum in 3% BSA in PBS.
(§3) For the sandwich assay approach 100 μL of 1/250th dilution of anti-A-beta antibody, (Signet) was applied to the tissue. The tissue was then incubated for 1.5 hours at room temperature, or in an alternative approach, for 45 minutes at 37° C. Next, a 1/100th dilution of the secondary antibody Alexa Flour 594-goat antimouse IgG (Molecular Probes) was prepared in PBS and 100 μl was applied to the slides, which were then incubated at room temperature for 1.5 hours. […]
(§4) Microscopic examination was performed using a Leica (Leica Microsystems Inc, Bannockburn Ill.) wide-field fluorescence microscope.
(§5) The fluorescent images were quantified by calculating the sum of pixel intensity of the immunofluorescence for each amyloid species. […]
The test system of assay [2] is A-beta fibrils (human A-beta 1-40). It counts as binding. As to conditions: A-beta fibrils on rat brain section; fluorescence imaging; FIG. 4-5.
Method: as §1
The clear film of A-beta 1-40 was diluted with distilled water to achieve a 6-mg/mL concentration. […] The clear solution was diluted to 1 mg/mL with PBS, pH 7.4 to obtain a final concentration of 1 mg/mL A-beta 1-40 then incubated at 37° C. on an orbital shaker at 200 RPM for 4 days.
as §2, §3, §4, §5

In the case of `Cc1ccc2c(c1)sc(-c1ccc(N(C)C)cc1)[n+]2C.[Cl-]` [Thioflavin T], the “binding to soluble oligomeric A-beta” value in assay [1] is recorded as “bound”. Besides, in assay [2], the “binding to A-beta fibrils” value is “bound”.

As to `O=Cc1ccc(-c2oc3ccccc3c2CO)o1` [68B-3], the “binding to soluble oligomeric A-beta” value in assay [1] was “bound”. Besides, in assay [1] (stated as validated property of the binder), the “preferential binding, soluble A-beta relative to insoluble A-beta” value is reported as “preferential binder for soluble A-beta”. Further, the “binding to A-beta fibrils” value in assay [2] is “bound”.

The record behind these values is patent publication US7745222B2, “Amyloid binding assays” (priority 2006, dated 2010).
